Data set [1] concerns Salmonella typhimurium TA98, TA100, TA1535 and TA1537. In words: Bacterial reverse mutation test. The class given is cell-based. The conditions noted are these: up to 5000 μg/plate; with and without S-9. How it is done:
(§1) These conditions included treatments at concentrations up to 5000 μg/plate (the maximum recommended concentration according to current regulatory guidelines), in the absence and in the presence of a rat liver metabolic activation system (S-9).

Data set [2] concerns Escherichia coli WP2 uvrA pKM101. Description: Bacterial reverse mutation test. The class given is cell-based. The conditions noted are these: up to 5000 μg/plate; with and without S-9. The method, then:
as §1

Data set [3] can be described thus: In vitro binding of 5-MeO-DMT to plasma proteins, high throughput dialysis. The class given is in vitro ADME. The method, then:
Following evaluation of the equilibration data, plasma protein binding was investigated at nominal concentrations of 0.1, 1 and 10 μM using a 4-hour dialysis time. […]

As to `COc1ccc2[nH]cc(CCN(C)C)c2c1` [5-MeO-DMT], the Mutation induction entry in data set [1] and in data set [2] was “did not induce mutation” throughout. In data set [3] (human plasma), the fraction unbound at 4 h lay within 0.77 to 0.87. Moreover, the fraction unbound at 4 h, 0.1 μM in data set [3] (human, 0.1 μM, 4-hour dialysis, read-out: Free Fraction in human plasma) was 0.787. Besides, the fraction unbound at 4 h, 1 μM in data set [3] (human, 1 μM, 4-hour dialysis, read-out: Free Fraction in human plasma) is 0.773. Further, the fraction unbound at 4 h, 10 μM in data set [3] (human, 10 μM, 4-hour dialysis, read-out: Free Fraction in human plasma) was 0.87.
